According to ChEMBL document CHEMBL1201862, “PubChem BioAssay data set” (2004):
Active and inactive are the calls of the source.

What was measured:
Cytochrome P450 2C9 = Cytochrome P450 2C9 (Homo sapiens, UniProt P11712); conditions: Potency
fMet-Leu-Phe receptor = target: T1, fMet-Leu-Phe receptor (Homo sapiens, UniProt P21462); experiment: FPR ligands, dose response (AID 519); type: functional
T1 sequence (P21462 whole entry): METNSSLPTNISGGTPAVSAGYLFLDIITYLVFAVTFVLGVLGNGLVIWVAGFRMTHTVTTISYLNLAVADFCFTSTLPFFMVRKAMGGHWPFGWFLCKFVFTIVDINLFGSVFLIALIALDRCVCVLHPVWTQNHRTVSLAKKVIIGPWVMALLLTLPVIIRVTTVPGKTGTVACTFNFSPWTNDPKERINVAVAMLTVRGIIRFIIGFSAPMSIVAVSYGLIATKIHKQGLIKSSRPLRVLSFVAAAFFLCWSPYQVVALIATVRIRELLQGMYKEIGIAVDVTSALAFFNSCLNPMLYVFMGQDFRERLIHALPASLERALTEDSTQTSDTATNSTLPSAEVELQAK

[1] = target: Melanin-concentrating hormone receptor 1 (Homo sapiens, UniProt Q99705); experiment: Fluorescence-based counterscreen for antagonists of the G-protein coupled receptor 7 (GPR7): cell-based high throughput dose response assay to identify antagonists of the melanin-concentrating hormone receptor 1 (MCHR1).; type: functional
[2] = target: T2, Neuropeptides B/W receptor type 1 (Homo sapiens, UniProt P48145); experiment: Fluorescence-based dose response cell-based high throughput screening assay to identify antagonists of the G-protein coupled receptor 7 (GPR7). [Related pubchem assays: 1952 (Screening assay (GPR7 antagonists).), 1880 (Summary AID.)]; type: functional
T2 sequence (P48145 whole entry): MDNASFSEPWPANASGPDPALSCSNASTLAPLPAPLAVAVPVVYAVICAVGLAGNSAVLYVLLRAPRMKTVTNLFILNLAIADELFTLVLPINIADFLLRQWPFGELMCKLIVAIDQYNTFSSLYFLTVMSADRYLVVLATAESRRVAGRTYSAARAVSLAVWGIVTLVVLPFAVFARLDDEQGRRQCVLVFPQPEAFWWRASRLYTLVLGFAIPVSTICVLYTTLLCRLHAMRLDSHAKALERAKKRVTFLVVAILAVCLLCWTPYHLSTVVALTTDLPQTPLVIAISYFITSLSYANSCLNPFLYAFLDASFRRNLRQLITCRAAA

[3] = HEp-2 cell cytotoxicity, dose response, cytotoxicity control for RSV inhibitor project, HTS (AID 2410); type: functional; conditions: human respiratory syncytial virus
Nonstructural protein 1 = Nonstructural protein 1 (Influenza A virus, UniProt Q194T2); type: functional, Influenza A virus (A/California/07/2009(H1N1))
[4] = target: T3, Rac GTPase-activating protein 1 (Homo sapiens, UniProt Q9H0H5); experiment: MgcRacGAP GTPase-activating activity inhibitors, confirmation, biochemical, ADP Hunter fluorescence, primary and confirmatory (AID 624330); type: functional
T3 sequence (Q9H0H5 whole entry): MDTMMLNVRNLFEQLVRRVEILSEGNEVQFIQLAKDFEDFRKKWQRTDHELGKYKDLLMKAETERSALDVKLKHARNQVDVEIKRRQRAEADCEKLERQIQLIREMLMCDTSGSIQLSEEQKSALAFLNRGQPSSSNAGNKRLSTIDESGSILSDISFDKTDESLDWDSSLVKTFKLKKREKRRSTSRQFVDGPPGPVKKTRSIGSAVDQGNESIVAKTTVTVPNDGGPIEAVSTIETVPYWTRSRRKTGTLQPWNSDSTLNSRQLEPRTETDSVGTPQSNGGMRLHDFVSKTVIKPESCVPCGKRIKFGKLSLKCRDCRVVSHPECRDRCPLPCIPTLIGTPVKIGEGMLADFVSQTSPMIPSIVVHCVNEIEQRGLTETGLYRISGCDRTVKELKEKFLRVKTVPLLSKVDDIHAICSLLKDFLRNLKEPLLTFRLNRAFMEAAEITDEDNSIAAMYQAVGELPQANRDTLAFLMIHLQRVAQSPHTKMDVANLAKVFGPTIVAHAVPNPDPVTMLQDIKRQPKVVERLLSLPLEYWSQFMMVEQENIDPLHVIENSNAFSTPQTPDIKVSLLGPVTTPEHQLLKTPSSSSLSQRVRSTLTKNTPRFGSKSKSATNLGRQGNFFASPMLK

[5] = Luminescence Cell-Based Dose Confirmation HTS to Identify Inhibitors of Platelet Dense Granule Release. [Related pubchem assays: 1663 (Primary HTS), 1678 (Summary of Project)]; type: functional
[6] = target: Luciferin 4-monooxygenase (Photinus pyralis, UniProt P08659); experiment: firefly luciferase enzyme inhibitors, dose response, biochemical, luminescence (AID 1891)
Leucine aminopeptidase = target: T4, Leucine aminopeptidase (Plasmodium falciparum 3D7, UniProt Q8IL11); experiment: P. falciparum M17LAP inhibitors, primary screen, biochemical, fluorogenic H-Leu-NHMec substrate, 1536-well (AID 1619); type: functional
T4 sequence (Q8IL11 whole entry): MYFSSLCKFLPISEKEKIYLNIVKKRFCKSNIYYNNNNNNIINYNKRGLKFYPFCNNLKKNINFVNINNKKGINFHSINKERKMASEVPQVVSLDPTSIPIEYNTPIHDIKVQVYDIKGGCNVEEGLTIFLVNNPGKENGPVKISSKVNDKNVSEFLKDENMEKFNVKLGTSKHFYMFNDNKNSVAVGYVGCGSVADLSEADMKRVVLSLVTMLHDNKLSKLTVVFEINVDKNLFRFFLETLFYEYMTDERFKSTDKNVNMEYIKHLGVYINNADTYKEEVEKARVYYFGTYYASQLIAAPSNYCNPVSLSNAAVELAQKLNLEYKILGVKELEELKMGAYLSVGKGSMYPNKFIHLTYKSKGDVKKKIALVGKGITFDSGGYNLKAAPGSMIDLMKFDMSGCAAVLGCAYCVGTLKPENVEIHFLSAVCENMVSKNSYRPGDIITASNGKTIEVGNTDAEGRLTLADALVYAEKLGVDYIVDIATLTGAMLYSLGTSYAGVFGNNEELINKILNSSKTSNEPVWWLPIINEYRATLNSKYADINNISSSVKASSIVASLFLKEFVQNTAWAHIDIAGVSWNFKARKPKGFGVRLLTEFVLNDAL

[7] = ZM109 Env clade C HIV-1 fusion inhibitors, dose response, HeLa effector, CEM target cells, luciferase, cherry-pick (AID 652058); type: functional, cell-based
[8] = off-target signal loss in HeLa-CEM21 co-culture – HeLa F-luc CTL cells, cherry-picked, counter-screen for HIV-1 Env fusion inhibitor project, dose response (AID 652040); type: functional, cell-based;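 further: potency for signal decrease marking cytotoxic or nonspecific inhibition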
[9] = inhibitors of HIV Env-driven cell fusion, dose response, cherry-pick (AID 652057); type: functional, cell-based
[10] = inhibitors of clade B AD8 Env fusion, dose response, cell-based, cherry-pick (AID 652062); type: functional;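 further: luciferase signal from cell-cell fusion driven by HIV-1 clade B AD8 Env; potency is for inhibitors of fusion seen as a drop in luminescence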
Protein Tat = target: T5, Protein Tat (Human immunodeficiency virus type 1 group M subtype B (isolate HXB2)(HIV-1), UniProt P04608); type: functional;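 further: tat binding to TAR RNA read out by fluorescence polarization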
T5 sequence (P04608 whole entry): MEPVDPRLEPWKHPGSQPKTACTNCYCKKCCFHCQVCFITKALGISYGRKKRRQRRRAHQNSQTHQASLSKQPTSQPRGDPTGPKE

[11] = THP-1 cell cytotoxicity, dose response, cytotoxicity control for Vif-APOBEC3G degradation inhibitor project, THP-1 cells (AID 1117359); type: functional; conditions: Human immunodeficiency virus 1, THP-1
[12] = A375 melanoma cell cytotoxicity, dose response, counter-screen for MITF inhibitor project, CellTiter-Glo luminescence, dry powder, set 2 (AID 624489); type: functional, cell-based; conditions: A-375;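 further: actives are compounds lowering A375 viability meaning general cytotoxicity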
[13] = A375 melanoma cell viability loss, dose response, counter-screen for MITF inhibitor project, CellTiter-Glo luminescence, dry powder, set 4 (AID 624364); type: functional, cell-based; conditions: A-375;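 further: A375 melanoma cells are MITF independent so this is a counter screen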
SUMO-activating enzyme [14] = target: T6, SUMO-activating enzyme (Homo sapiens, UniProt Q9UBT2); experiment: inhibitors of in vitro SUMOylation cascade, primary screen, biochemical, HTRF, uHTS (AID 2006); type: protein-complex assay
SUMO-activating enzyme [15] = target: T6, SUMO-activating enzyme; experiment: SUMOylation inhibitor hit validation, confirmation, SUMOylation inhibitor project, biochemical, AlphaScreen (AID 2018); type: functional
Vero = experiment: cells; type: functional; conditions: Chlorocebus sabaeus
[16] = P. falciparum Dd2 growth inhibitors, dose response, SYBR Green, cherry-picked samples (AID 1159567); type: functional, cell-based
[17] = HepG2 cell cytotoxicity, dose response, cytotoxicity control, cherry-picked samples (AID 1159577); type: functional, cell-based
[18] = P. falciparum Dd2 growth inhibitors, dose response, SYBR Green, dry powder samples (AID 1159566); type: functional, cell-based;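 further: potency for growth inhibition with lower SYBR green DNA signal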
[19] = P. falciparum ATP4 D1247Y mutant growth inhibitors, dose response, NITD609-resistant line, SYBR Green, dry powder (AID 1159571); type: functional, cell-based;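 further: parasites synchronized at ring stage by sorbitol before testing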
[20] = P. falciparum 3D7-ScDHODH growth inhibitors, dose response, SYBR Green, dry powder samples (AID 1159570); type: functional, cell-based;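 further: parasite growth measured after 72 hours of compound exposure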
[21] = P. falciparum Dd2 growth inhibitors, dose response, SYBR Green, dry powder samples, set 9 (AID 1159568); type: functional, cell-based

Cytochrome P450 2C9, sequence (P11712 whole entry): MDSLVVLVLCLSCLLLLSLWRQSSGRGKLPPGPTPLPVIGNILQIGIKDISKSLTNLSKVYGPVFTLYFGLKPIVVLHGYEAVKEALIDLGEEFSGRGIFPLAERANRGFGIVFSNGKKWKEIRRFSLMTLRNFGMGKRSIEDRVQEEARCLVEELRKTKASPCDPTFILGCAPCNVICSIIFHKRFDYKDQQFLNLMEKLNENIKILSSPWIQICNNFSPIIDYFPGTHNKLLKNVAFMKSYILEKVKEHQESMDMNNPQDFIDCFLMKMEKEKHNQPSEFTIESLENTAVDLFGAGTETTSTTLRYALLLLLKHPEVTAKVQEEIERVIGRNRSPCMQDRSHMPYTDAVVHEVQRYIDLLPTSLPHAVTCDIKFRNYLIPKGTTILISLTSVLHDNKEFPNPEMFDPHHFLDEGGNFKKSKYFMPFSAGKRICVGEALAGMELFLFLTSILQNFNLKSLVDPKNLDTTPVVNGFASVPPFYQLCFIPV
Melanin-concentrating hormone receptor 1, sequence (Q99705 whole entry): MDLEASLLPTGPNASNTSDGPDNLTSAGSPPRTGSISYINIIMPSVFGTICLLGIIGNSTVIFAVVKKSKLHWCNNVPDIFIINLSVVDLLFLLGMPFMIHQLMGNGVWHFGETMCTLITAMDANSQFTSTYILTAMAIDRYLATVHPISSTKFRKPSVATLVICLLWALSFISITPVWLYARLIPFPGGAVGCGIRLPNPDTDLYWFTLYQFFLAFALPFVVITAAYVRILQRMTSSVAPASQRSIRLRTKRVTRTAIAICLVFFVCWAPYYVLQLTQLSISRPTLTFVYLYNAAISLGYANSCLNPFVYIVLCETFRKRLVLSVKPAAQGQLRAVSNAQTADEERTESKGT
T6 sequence (Q9UBE0 whole entry): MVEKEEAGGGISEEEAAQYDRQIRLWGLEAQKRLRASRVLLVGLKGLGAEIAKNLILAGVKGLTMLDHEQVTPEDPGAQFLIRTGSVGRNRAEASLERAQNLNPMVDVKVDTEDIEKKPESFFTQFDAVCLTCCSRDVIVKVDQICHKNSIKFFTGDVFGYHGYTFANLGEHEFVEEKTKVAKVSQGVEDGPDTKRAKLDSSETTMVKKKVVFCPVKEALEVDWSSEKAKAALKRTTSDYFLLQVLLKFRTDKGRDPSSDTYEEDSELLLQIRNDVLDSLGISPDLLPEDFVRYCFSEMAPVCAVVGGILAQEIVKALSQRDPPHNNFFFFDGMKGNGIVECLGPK
T6 sequence (Q9UBT2 whole entry): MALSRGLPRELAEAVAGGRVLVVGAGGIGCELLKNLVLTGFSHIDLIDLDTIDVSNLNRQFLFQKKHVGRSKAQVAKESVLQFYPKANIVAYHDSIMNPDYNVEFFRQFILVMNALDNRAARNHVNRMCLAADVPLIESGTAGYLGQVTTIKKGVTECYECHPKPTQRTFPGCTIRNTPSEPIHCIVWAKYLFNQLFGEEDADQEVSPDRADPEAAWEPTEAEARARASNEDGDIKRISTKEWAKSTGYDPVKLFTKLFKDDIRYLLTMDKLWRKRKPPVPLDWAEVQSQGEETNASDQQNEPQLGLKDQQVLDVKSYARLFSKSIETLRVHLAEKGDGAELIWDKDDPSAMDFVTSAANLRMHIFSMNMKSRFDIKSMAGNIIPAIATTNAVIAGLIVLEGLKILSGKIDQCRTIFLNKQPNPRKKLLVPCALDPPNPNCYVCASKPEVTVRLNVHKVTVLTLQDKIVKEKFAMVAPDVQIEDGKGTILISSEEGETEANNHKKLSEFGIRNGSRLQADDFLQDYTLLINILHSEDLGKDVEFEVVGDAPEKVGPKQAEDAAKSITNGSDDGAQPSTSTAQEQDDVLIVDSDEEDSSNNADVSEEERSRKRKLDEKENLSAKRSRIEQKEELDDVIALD
Luciferin 4-monooxygenase, sequence (P08659 whole entry): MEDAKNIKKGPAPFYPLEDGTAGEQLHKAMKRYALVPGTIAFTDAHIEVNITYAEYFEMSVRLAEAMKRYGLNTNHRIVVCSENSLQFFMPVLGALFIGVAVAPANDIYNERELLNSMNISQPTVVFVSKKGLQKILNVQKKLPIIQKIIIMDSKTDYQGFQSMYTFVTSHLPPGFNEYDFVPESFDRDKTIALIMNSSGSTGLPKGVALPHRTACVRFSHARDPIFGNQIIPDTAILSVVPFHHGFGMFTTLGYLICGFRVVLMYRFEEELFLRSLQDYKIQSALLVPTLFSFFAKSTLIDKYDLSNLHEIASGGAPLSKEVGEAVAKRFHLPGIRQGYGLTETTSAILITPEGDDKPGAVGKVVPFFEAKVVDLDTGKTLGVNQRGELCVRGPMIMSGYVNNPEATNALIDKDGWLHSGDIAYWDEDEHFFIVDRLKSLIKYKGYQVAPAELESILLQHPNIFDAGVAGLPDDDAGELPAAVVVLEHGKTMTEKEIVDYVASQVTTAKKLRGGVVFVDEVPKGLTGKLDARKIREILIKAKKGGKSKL
Nonstructural protein 1, sequence (Q194T2 whole entry): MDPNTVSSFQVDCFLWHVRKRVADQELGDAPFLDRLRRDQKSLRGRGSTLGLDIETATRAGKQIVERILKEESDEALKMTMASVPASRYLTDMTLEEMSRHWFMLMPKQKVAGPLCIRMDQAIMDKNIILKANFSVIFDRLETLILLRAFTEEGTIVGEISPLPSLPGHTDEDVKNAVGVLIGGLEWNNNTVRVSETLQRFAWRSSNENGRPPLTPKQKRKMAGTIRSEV

With `CCCCC#CC1C=CC(Oc2cc(OC)c(OC)c(OC)c2)C(COC(=O)OCC)O1` (configuration not stated) the AC50 (Cytochrome P450 2C9) was 6.31 µM (inconclusive).

In the case of `Cc1ccc(C2C(C(=O)c3cnn(-c4ccccc4)c3C)=C(O)C(=O)N2CCN2CCOCC2)o1` (configuration not stated), the Ki (fMet-Leu-Phe receptor) is reported as 23.2 µM (inactive).

For `CN(c1ccccc1)S(=O)(=O)c1ccc(C(=O)NCCc2ccccc2)cc1`, the IC50 [1] was 16 µM (not active) and the IC50 [2] was > 14.6 µM (not active).

In the case of `COc1ccc(NS(=O)(=O)c2cccc(C(=O)NCC(c3ccc(F)cc3)N3CCOCC3)c2)cc1` (configuration not stated), the IC50 [1] is reported as 23.6 µM (not active) and the IC50 [2] is reported as > 43.8 µM (not active).

With `c1ccc(CCn2c3ccccc3c3nnc(SCc4ccc5nonc5c4)nc32)cc1` the IC50 (cells) was 28.3 µM (active) and the CC50 [3] was 22.3 µM (active).

In the case of `CC(=O)OCCNc1cc(N2CCN(C)CC2)c2noc3c2c1C(=O)c1ccccc1-3`, the IC50 (Nonstructural protein 1) is reported as 24.1 µM (active), the Ki (fMet-Leu-Phe receptor) is reported as > 66.7 µM (inactive) and the IC50 [4] is reported as 117 µM (active).

In the case of `O=S(=O)(Nc1cccc(-c2ccc(N3CCOCC3)nn2)c1)c1cc(Cl)ccc1Cl`, the IC50 (cells) is reported as 8.9 µM (active) and the CC50 [3] is reported as 23.5 µM (active).

In the case of `O=C1CCCN1c1ccc(C(=O)N(Cc2nnc(-c3ccccc3Cl)o2)C2CC2)cc1`, the IC50 (cells) is reported as 18.8 µM (active) and the CC50 [3] is reported as 48.5 µM (active).

With `CC(C)C[C@@H](CC(=O)N[C@@H](CCCN)CC(=O)N[C@@H]1CCCC[C@H]1C(=O)N[C@H](CC(=O)N[C@@H](CCC(=O)O)CC(=O)O)Cc1c[nH]c2ccccc12)NC(=O)[C@@H]1CCCC[C@H]1N` the AC50 (Cytochrome P450 2C9) was 39.8 µM (inconclusive).

In the case of `CSc1ncnc2c1ncn2CC(=O)[C@H]1CC[C@H]2[C@H]3CCC4=CC(=O)CC[C@@]4(C)[C@@H]3CC[C@@]12C`, the AC50 (Cytochrome P450 2C9) is reported as 3.16 µM (inconclusive).

With `O=C(Cn1cnc2c(cnn2-c2ccc(F)cc2)c1=O)OCc1ccccc1` the EC50 [5] was > 112 µM (not active), the EC50 [6] was > 112 µM (not active) and the Ki (fMet-Leu-Phe receptor) was > 66.7 µM (inactive).

In the case of `COc1ccc(CNC(=O)Cc2c(C(=O)O)[nH]c3ccccc23)cc1`, the IC50 (Leucine aminopeptidase) is reported as 35.6 µM (active).

With `COC(=O)CNC(c1ccccc1)c1cc(C)ccc1NC(=O)CNC(=O)OCc1ccccc1` (configuration not stated) the IC50 [1] was 20 µM (not active), the AC50 [7] was 6.89 µM (active) and the AC50 [8] was 6.15 µM (active). The AC50 [9] was 3.28 µM (active), the IC50 [2] was 35.3 µM (not active) and the AC50 [10] was 36.1 µM (active).

With `C[C@@H]1CN([C@@H](C)CO)C(=O)c2cc(NC(=O)Nc3ccccc3)ccc2O[C@@H](C)CCCCO[C@H]1CN(C)C(=O)Nc1ccc(C(F)(F)F)cc1` the IC50 (Protein Tat) was > 100 µM (active) and the CC50 [11] was 36.3 µM (active).

For `O=C(NC1=C(N2CCSCC2)C(=O)c2ccccc2C1=O)c1ccc(Br)cc1`, the AC50 [12] was 49.9 µM (active) and the AC50 [13] was > 70 µM (inactive).

With `O=C1C(NS(=O)(=O)c2ccc(Br)cc2)=C(c2ccccc2)C(=O)c2ccccc21` the AC50 [12] was > 70 µM (inactive) and the AC50 [13] was > 70 µM (inactive).

In the case of `C=CCNC1=C(Nc2ccccc2)C(=O)c2ccccc2C1=O`, the AC50 [12] is reported as > 70 µM (inactive) and the AC50 [13] is reported as > 70 µM (inactive).

For `Sc1nnc(-c2cccs2)n1/N=C/c1cn(-c2ccccc2)nc1-c1ccc(Cl)cc1`, the IC50 (SUMO-activating enzyme [14]) was 34.5 µM (active), the IC50 (SUMO-activating enzyme [15]) was 5.24 µM (active) and the CC50 (Vero) was > 25 µM (active).

With `Cc1cccc(N/N=C(\C#N)S(=O)(=O)C(C)(C)C)c1` the IC50 (Leucine aminopeptidase) was 19 µM (active).

For `C[C@@H]1CN([C@@H](C)CO)C(=O)c2c(c3ccccc3n2C)-c2ccccc2CO[C@@H]1CN(C)Cc1ccccc1C(F)(F)F`, the AC50 [16] was 1.47 µM (active) and the AC50 [17] was 8.34 µM (active).

In the case of `N#C[C@@H]1[C@H](c2ccccc2C2=CCCCC2)[C@@H](CO)N1C(=O)c1cccc(F)c1`, the AC50 [18] is reported as 1.93 µM (active), the AC50 [16] is reported as 2.74 µM (active) and the AC50 [19] is reported as 7.9 µM (active). The AC50 [20] was 2.12 µM (active).

For `C/C=C/c1ccc([C@H]2[C@@H](CO)N(CC3CCCCC3)[C@H]2CNC(C)C)cc1`, the AC50 [21] was 5.66 µM (active).

For `COc1ccc(S(=O)(=O)Nc2ccc3c(c2)C(=O)N([C@H](C)CO)C[C@@H](C)[C@@H](CN(C)S(=O)(=O)c2ccc(Cl)cc2)OCCCC[C@@H](C)O3)cc1`, the AC50 [21] was 0.742 µM (active).
